Reference: ChEMBL document CHEMBL1141511, “4,4-Dimethyl-1,2,3,4-tetrahydroquinoline-based PPARalpha/gamma agonists. Part I: synthesis and pharmacological evaluation” (Bioorg Med Chem Lett, 2008)
Active and inactive are the calls of the source. The calls are words filed in the database; no cut-off is given here.

Key:
[1] = biological target: T1, Peroxisome proliferator-activated receptor alpha (Homo sapiens) (UniProt Q07869); experiment: (§1) Agonist activity at human PPARalpha by GAL4 transactivation assay; type: functional
T1 sequence (whole entry): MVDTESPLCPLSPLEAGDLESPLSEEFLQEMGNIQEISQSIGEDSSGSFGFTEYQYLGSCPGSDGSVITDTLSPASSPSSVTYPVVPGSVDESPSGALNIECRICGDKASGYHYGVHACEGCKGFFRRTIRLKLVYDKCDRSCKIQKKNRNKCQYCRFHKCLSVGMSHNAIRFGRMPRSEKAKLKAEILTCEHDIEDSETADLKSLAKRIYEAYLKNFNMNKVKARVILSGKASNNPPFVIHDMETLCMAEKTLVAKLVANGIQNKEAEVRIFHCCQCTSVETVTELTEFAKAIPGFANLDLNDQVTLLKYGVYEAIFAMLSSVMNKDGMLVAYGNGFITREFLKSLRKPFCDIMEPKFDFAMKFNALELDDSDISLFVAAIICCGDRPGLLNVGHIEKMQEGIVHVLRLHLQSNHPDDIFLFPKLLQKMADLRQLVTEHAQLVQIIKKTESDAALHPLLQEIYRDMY

[2] = biological target: T2, Peroxisome proliferator-activated receptor gamma (Homo sapiens, UniProt P37231)
T2 sequence (P37231 whole entry): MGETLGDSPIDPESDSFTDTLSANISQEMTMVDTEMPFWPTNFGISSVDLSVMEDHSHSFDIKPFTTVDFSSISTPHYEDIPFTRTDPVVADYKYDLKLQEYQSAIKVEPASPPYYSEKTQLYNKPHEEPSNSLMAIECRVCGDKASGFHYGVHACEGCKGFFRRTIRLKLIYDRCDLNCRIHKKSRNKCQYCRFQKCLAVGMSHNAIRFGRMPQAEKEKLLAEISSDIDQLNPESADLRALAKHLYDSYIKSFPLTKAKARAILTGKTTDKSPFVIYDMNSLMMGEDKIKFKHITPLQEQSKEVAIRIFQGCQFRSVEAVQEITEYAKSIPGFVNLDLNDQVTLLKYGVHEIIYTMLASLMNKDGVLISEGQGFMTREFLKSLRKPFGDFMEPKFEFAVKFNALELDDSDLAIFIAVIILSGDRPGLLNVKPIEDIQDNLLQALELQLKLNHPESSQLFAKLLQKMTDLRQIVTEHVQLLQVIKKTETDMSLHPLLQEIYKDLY

[3] = biological target: T3, Peroxisome proliferator-activated receptor alpha (Homo sapiens, UniProt Q07869); experiment: as §1; type: functional
T3 sequence (Q07869 whole entry): T1 sequence (whole entry)

| Activity [1] | Ki [2] [µM] | EC50 [3] [nM] | SMILES |
| --- | --- | --- | --- |
| inactive | 10 | – | COC(=O)C(Cc1ccc(OCCN2CCC(C)(C)c3cc(C(=O)c4ccccc4)ccc32)cc1)C(=O)OC |
| – | 0.018 | 414 | CCO[C@@H](Cc1ccc(OCCc2ccc(OS(C)(=O)=O)cc2)cc1)C(=O)O [TESAGLITAZAR] |
| – | 0.618 | 189 | CCOC(=O)C(Cc1ccc(OCCN2CCC(C)(C)c3cc(/C(=N\O)c4ccccc4)ccc32)cc1)OCC (stereo not drawn) |
| inactive | 10 | – | COC(=O)C(Cc1ccc(OCCN2CCC(C)(C)c3cc(/C(=N\O)c4ccccc4)ccc32)cc1)C(=O)OC |
